Reference: ChEMBL document CHEMBL1150841, “Mirabilin G: a new alkaloid from a southern Australian marine sponge, Clathria species” (J Nat Prod, 2001)
Active and inactive are the calls of the source.

Experiments:
Format in all cases: functional, organism-based
Escherichia coli = assay: Antimicrobial activity against Escherichia coli
Serratia marcescens = assay: Antimicrobial activity against Serratia marcescens
Saccharomyces cerevisiae = assay: Antimicrobial activity against Saccharomyces cerevisiae

Measured: inhibition

CCCC/C=C/C1=C2NC(=N)N[C@H]3CC[C@@H](C[C@@H]1C)[C@@H]23
active: all assays above
